# Results as given in US5462933A, “Modified bile acid conjugates, and their use as pharmaceuticals” (Hoechst Aktiengesellschaft, priority 1989, dated 1995).
# Assays:
# [1] = tested on: 43,000 (cytoskeletal protein); test: Photoaffinity labeling of bile acid-binding proteins in hepatocytes in the presence of competitor; set-up: species or system rat
# From the text: (§1) The molecules of these physiologically relevant binding proteins for bile acids were identified and characterized by the method of photoaffinity labeling. The principle of this method consists in binding a photoreactive radioactively labeled bile acid derivative to the physiological binding protein analogously to the natural bile acids. By irradiation with UV light, highly reactive chemical intermediates such as carbenes, nitrenes or radicals are generated in this derivative which, owing to their high reactivity, immediately react with the binding proteins by addition to double bonds or insertion in single bonds and bind covalently to these. By means of this covalent linkage of the radioactive bile acid derivative with the binding protein, the binding proteins are then also radioactively labeled and can be identified by a separation of the various proteins of a liver cell, for example by electrophoresis, and their molecular weight determined.
# (§2) If such a photoaffinity labeling is carried out in the presence of a substance X' which also binds to the bile acid-binding proteins, then X' will compete with the radioactive bile acid derivative for binding to the bile acid-binding proteins; the radioactive labeling of the corresponding binding proteins will thus be lower in the presence of X'.
# (§3) 3.6×10^6 freshly isolated hepatocytes from rat liver (about 3 mg of protein) in 1.5 ml of buffer I (118 mM NaCl, 4.74 mM KCl, 0.59 mM KH2 PO4, 0.59 mM Na2 HPO4 ×2 H2 O, 1.185 mM MgCl2 ×6 H2 O, 24.87 mM NaHCO3, 1.25 mM CaCl2, 5.5 mM D-glucose, pH 7.35, buffer aerated with carbogen (95% O2 /5% CO2) for 1 h) were incubated at 37° C. […] in the dark with 1.25 μM (25 μCi) of (7,7-azo-3α-12α-dihydroxy-5β[3-^3 H]cholan-24-oyl)-2-aminoethanesulfonic acid in the absence or in the presence of 250 μM "Example 3" and then irradiated at […] with 16 RPR 3500 Å-lamps for 5 min in a Rayonet RPR-100 photoreactor. The cell suspension was then diluted with 10 ml of ice-cold buffer I and the cells sedimented by centrifuging at 1000×g for 3 minutes. The cells were resuspended again in 10 ml of buffer I and again sedimented by centrifugation. The precipitate was taken up in 600 μl of tris/HCl buffer (pH 6.8)/2% sodium dodecylsulfate (SDS)/5% 2-mercaptoethanol/10% glycerol/0.001% Bromophenol blue, heated to 90° C. for 5 min and centrifuged at 40,000×g for 20 min. The clear supernatant containing the solubilized proteins was used subsequently. In each case 100 μl (500 μg of protein) were applied to discontinuous SDS slab gels (200×170×2.7 mm, total acrylamide concentration 12%) and the proteins were separated by electrophoresis at a voltage of 50 V. After the electrophoresis, the gels were fixed in 12.5% strength trichloroacetic acid solution and stained using 0.08% Serva blue R 250 solution in 25% ethanol/8% acetic acid/67% water. After destaining, the gels were equilibrated in 1M sodium salicylate solution in 70% methanol for 20 min and then dried. The distribution of the radioactively labeled proteins was determined by the fluorographic method by placing the dried gels on Kodak-X-Omat AR X-ray films and exposing at -80° C. for 14 d. The blackened films were measured by densitometry. The decrease in the labeling of the various bile acid-binding proteins owing to the presence of "Example 3" during the photoaffinity labeling is given in % relative to the control.
# [2] = tested on: 36,000 (transport protein in the cytoplasm); test: as above; set-up: species or system rat
# From the text: as §1, §2, §3
# [3] = tested on: 33,000 (binding protein in mitochondria); test: as above; set-up: species or system rat
# From the text: as §1, §2, §3
# [4] = tested on: 48,000 (membrane transport protein); test: as above; set-up: species or system rat
# From the text: as §1, §2, §3
# [5] = tested on: 54,000 (membrane transport protein); test: as above; set-up: species or system rat
# From the text: as §1, §2, §3
# 67,000 (albumin) = target: T1, 67,000 (albumin) (Rattus norvegicus, UniProt P02770); test: as above; conditions: decrease in labeling relative to control
# T1 construct: freshly isolated hepatocytes from rat liver; endogenous in cells; host or cells: freshly isolated rat hepatocytes
# From the text: as §1
# as §2, with “X'. […]” for “X'.”
# liver cell proteins = test: Alkylation of liver cell proteins in freshly isolated hepatocytes; assay type: cell-based, rat
# Description: Freshly isolated hepatocytes (2×10^6) in 2 ml of buffer I were incubated at 37° C. with 30 μCi of "Example 5". After 10, 30, 40 and 60 min, in each case 500 μl of cell suspension (500 μg of protein) were removed and diluted with 10 ml of ice-cold buffer I. After centrifuging at 1000×g for 3 minutes, the precipitate was resuspended in 10 ml of buffer I and the suspension was centrifuged again. The cell precipitates were each dissolved in 100 μl of 62.5 mM tris/HCl buffer (pH 6.8)/2% SDS/5% 2-mercaptoethanol/10% glycerol/0.001% Bromophenol blue, centrifuged at 48,000×g for 30 min and the clear supernatants were applied to discontinuous SDS slab gels (200×170×2.7 mm). After the electrophoretic separation, the gels were fixed and stained. To determine the distribution of the radioactivity, the individual gel tracks were divided into 2 mm sections, the proteins were digested with Biolute S by incubation with 0.5 ml, and after addition of 5 ml of Quickszint 501 scintillator, the samples were measured in a liquid scintillation counter.
# [6] = tested on: freshly isolated hepatocytes; test: Metabolism by freshly isolated hepatocytes; assay type: in vitro ADME, rat; set-up: Distribution of the radioactivity: Metabolite 1 Rf = 0.32 / Distribution of the radioactivity: Metabolite 3 Rf = 0.21 (not identified): concentration or dose not given beside the values
# Description: Freshly isolated hepatocytes (1.8×10^6) in 750 μl of buffer I were incubated at 37° C. with 5.5 μCi of "Example 5". After 10, 20, 30, 40 and 60 min, 100 μl of the cell suspension were removed in each case, diluted with 10 ml of ice-cold buffer I and centrifuged at 1000×g for 5 min. The cell precipitate was treated twice with 100 μl of chloroform/methanol solution (1/1, v/v) each time to extract the bile acid. The organic extracts were evaporated in a stream of N2, and the residues were each taken up in 20 μl of dioxane and applied to HPTLC thin layer plates. After developing the chromatogram using n-butanol/acetic acid/water (9:1:2, v/v/v) as the eluent, the plate was dried, sprayed with 1M sodium salicylate solution in methanol and, after drying, placed on a Kodak-X-Omat AR X-ray film. After exposure at -80° C. for 1 week, the film was developed and the distribution of the radioactivity was determined by densitometry. The distribution of the radioactivity in the individual metabolites is given in %.
# T1 sequence (P02770 25-608): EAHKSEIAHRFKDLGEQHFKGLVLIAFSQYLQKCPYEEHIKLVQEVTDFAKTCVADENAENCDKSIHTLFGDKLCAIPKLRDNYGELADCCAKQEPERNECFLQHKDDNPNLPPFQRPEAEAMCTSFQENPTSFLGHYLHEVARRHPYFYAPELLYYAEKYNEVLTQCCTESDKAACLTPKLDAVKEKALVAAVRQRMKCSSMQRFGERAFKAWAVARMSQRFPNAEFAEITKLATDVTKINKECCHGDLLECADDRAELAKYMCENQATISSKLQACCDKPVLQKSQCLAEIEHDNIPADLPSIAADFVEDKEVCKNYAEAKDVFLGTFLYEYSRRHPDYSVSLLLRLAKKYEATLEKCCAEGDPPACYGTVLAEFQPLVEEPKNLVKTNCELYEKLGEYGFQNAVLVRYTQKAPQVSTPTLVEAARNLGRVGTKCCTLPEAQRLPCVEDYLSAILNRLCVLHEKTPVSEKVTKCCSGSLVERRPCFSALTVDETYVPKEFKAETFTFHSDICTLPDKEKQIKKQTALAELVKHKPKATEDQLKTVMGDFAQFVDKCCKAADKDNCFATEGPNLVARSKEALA
smiles,measurement,setting,value
C[C@H](CCC(=O)NCCS(=O)(=O)O)[C@H]1CC[C@H]2[C@@H]3CC[C@@H]4C[C@H](OC(=O)CCCc5ccc(N(CCCl)CCCl)cc5)CC[C@]4(C)[C@H]3CC(=O)[C@]12C [Example 3],"% Inhibition of bile acid-binding proteins by 250 μM ""Example 3""",[1],88.1%
same,"% Inhibition of bile acid-binding proteins by 250 μM ""Example 3""",[2],98.1%
same,"% Inhibition of bile acid-binding proteins by 250 μM ""Example 3""",[3],93.2%
same,"% Inhibition of bile acid-binding proteins by 250 μM ""Example 3""",[4],88.8%
same,"% Inhibition of bile acid-binding proteins by 250 μM ""Example 3""",[5],89.6%
same,"% Inhibition of bile acid-binding proteins by 250 μM ""Example 3""","67,000 (albumin)",90.5%
[3H]C1(O)C[C@H]2[C@@H](CC[C@@H]3C[C@H](OC(=O)CCCc4ccc(N(CCCl)CCCl)cc4)CC[C@@]32C)[C@@H]2CC[C@H]([C@H](C)CCC(=O)NCCS(=O)(=O)O)[C@]21C (stereo partly shown) [Example 5],Radioactive labeling of liver cell proteins,"liver cell proteins; in membranes, cytoplasm and cell organelles, result in words",leads to a radioactive labeling of liver cell proteins
same,Radioactivity in labeled liver proteins,liver cell proteins; incubation 0 min,< 30 cpm
same,Radioactivity in labeled liver proteins,"liver cell proteins; incubation 10 min, 48 kDa",408 cpm
same,Radioactivity in labeled liver proteins,"liver cell proteins; incubation 10 min, 67 kDa",102 cpm
same,Radioactivity in labeled liver proteins,"liver cell proteins; incubation 30 min, 28 kDa",2190 cpm
same,Radioactivity in labeled liver proteins,"liver cell proteins; incubation 30 min, 33 kDa",1116 cpm
same,Radioactivity in labeled liver proteins,"liver cell proteins; incubation 30 min, 42 kDa",1711 cpm
same,Radioactivity in labeled liver proteins,"liver cell proteins; incubation 30 min, 48 kDa",1375 cpm
same,Radioactivity in labeled liver proteins,"liver cell proteins; incubation 30 min, 54 kDa",1811 cpm
same,Radioactivity in labeled liver proteins,"liver cell proteins; incubation 30 min, 122 kDa",1064 cpm
same,Radioactivity in labeled liver proteins,"liver cell proteins; incubation 40 min, 28 kDa",2682 cpm
same,Radioactivity in labeled liver proteins,"liver cell proteins; incubation 40 min, 33 kDa",1474 cpm
same,Radioactivity in labeled liver proteins,"liver cell proteins; incubation 40 min, 42 kDa",2650 cpm
same,Radioactivity in labeled liver proteins,"liver cell proteins; incubation 40 min, 48 kDa",2420 cpm
same,Radioactivity in labeled liver proteins,"liver cell proteins; incubation 40 min, 54 kDa",2385 cpm
same,Radioactivity in labeled liver proteins,"liver cell proteins; incubation 40 min, 122 kDa",1549 cpm
same,Radioactivity in labeled liver proteins,"liver cell proteins; incubation 60 min, 28 kDa",2163 cpm
same,Radioactivity in labeled liver proteins,"liver cell proteins; incubation 60 min, 42 kDa",1725 cpm
same,Radioactivity in labeled liver proteins,"liver cell proteins; incubation 60 min, 48 kDa",2074 cpm
same,Radioactivity in labeled liver proteins,"liver cell proteins; incubation 60 min, 54 kDa",1949 cpm
same,Radioactivity in labeled liver proteins,"liver cell proteins; incubation 60 min, 122 kDa",997 cpm
same,"Distribution of the radioactivity: ""Example 5"" Rf = 0.49",[6]; incubation 10 min,31.34%
same,Distribution of the radioactivity: Metabolite 1 Rf = 0.32,[6]; incubation 10 min,33.79%
same,Distribution of the radioactivity: Metabolite 2 Rf = 0.36,[6]; incubation 10 min,38.03%
same,Distribution of the radioactivity: Metabolite 3 Rf = 0.21 (not identified),[6]; incubation 10 min,5.62%
same,"Distribution of the radioactivity: ""Example 5"" Rf = 0.49",[6]; incubation 20 min,26.51%
same,Distribution of the radioactivity: Metabolite 1 Rf = 0.32,[6]; incubation 20 min,29.49%
same,Distribution of the radioactivity: Metabolite 2 Rf = 0.36,[6]; incubation 20 min,32.25%
same,Distribution of the radioactivity: Metabolite 3 Rf = 0.21 (not identified),[6]; incubation 20 min,11.74%
same,"Distribution of the radioactivity: ""Example 5"" Rf = 0.49",[6]; incubation 30 min,23.76%
same,Distribution of the radioactivity: Metabolite 1 Rf = 0.32,[6]; incubation 30 min,29.88%
same,Distribution of the radioactivity: Metabolite 2 Rf = 0.36,[6]; incubation 30 min,34.18%
same,Distribution of the radioactivity: Metabolite 3 Rf = 0.21 (not identified),[6]; incubation 30 min,12.16%
same,"Distribution of the radioactivity: ""Example 5"" Rf = 0.49",[6]; incubation 40 min,13.78%
same,Distribution of the radioactivity: Metabolite 1 Rf = 0.32,[6]; incubation 40 min,33.52%
same,Distribution of the radioactivity: Metabolite 2 Rf = 0.36,[6]; incubation 40 min,40.93%
same,Distribution of the radioactivity: Metabolite 3 Rf = 0.21 (not identified),[6]; incubation 40 min,11.75%
same,"Distribution of the radioactivity: ""Example 5"" Rf = 0.49",[6]; incubation 60 min,11.00%
same,Distribution of the radioactivity: Metabolite 1 Rf = 0.32,[6]; incubation 60 min,33.7%
same,Distribution of the radioactivity: Metabolite 2 Rf = 0.36,[6]; incubation 60 min,45.7%
same,Distribution of the radioactivity: Metabolite 3 Rf = 0.21 (not identified),[6]; incubation 60 min,10.3%
same,Absorption into the cell interior by the liver cells,[6]; result in words,is absorbed into the cell interior by the liver cells
same,Hydrolytic cleavage into free chlorambucil and bile acid,[6]; result in words,rapidly cleaved hydrolytically
